target: T1, human PAH with the R408W mutation (Homo sapiens, UniProt P00439, R408W); experiment: Cell Based Phenylalanine Flux Assay; settings: A375 cells expressing human PAH R408W; 24 hrs compound incubation; 13C-Tyrosine by LC-MS; average where tested multiple times; read-out: AC50;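 note: after compound treatment, cells received sepiapterin plus isotope-labelled Phenylalanine for 4 hours, then labelled Tyrosine in the medium was quantified, 10-point 2-fold dilution series run in duplicate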
T1 construct: expressed in transfected cells
T1 sequence (P00439 1-452 R408W): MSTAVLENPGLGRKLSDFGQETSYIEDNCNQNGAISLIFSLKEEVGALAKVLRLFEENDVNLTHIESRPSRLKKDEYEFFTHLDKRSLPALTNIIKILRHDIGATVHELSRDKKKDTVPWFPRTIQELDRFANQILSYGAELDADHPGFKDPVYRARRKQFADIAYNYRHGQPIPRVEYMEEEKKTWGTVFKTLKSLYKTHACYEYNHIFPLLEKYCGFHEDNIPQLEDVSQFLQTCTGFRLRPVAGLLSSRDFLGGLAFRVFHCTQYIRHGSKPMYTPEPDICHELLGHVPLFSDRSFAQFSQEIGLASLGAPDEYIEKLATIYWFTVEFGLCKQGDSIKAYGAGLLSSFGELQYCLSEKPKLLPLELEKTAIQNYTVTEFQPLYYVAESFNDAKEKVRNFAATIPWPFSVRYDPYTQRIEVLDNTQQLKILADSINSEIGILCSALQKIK

SMILES	AC50
Cc1cccn2nc([C@@H]3c4nc[nH]c4CCN3c3ncc(N)cn3)cc12 [Example 1827, (S)-2-(4-(4-methylpyrazolo[1,5-a]pyridin-2-yl)-6,7-dihydro-1H-imidazo[4,5-c]pyridin-5(4H)-yl)pyrimidin-5-amine]	500 to 1000 nM
Nc1cnc(N2CCc3[nH]cnc3[C@H]2c2cc3c(F)cccn3n2)nc1 [Example 1837, (S)-2-(4-(4-fluoropyrazolo[1,5-a]pyridin-2-yl)-1,4,6,7-tetrahydro-5H-imidazo[4,5-c]pyridin-5-yl)pyrimidin-5-amine]	500 to 1000 nM
O=C(c1nnc(C2CC2)o1)N1CCc2[nH]cnc2[C@H]1c1cc2c(C3CC3)cccn2n1 [Example 1838, (S)-(5-cyclopropyl-1,3,4-oxadiazol-2-yl)(4-(4-cyclopropylpyrazolo[1,5-a]pyridin-2-yl)-1,4,6,7-tetrahydro-5H-imidazo[4,5-c]pyridin-5-yl)methanone]	< 500 nM
O=C(c1nnc(C2CC2)o1)N1CCc2[nH]cnc2[C@@H]1c1cc2c(C3CC3)cccn2n1 [Example 1839, (R)-(5-cyclopropyl-1,3,4-oxadiazol-2-yl)(4-(4-cyclopropylpyrazolo[1,5-a]pyridin-2-yl)-1,4,6,7-tetrahydro-5H-imidazo[4,5-c]pyridin-5-yl)methanone]	> 5000 nM
CC(C)(C)c1nnc(C(=O)N2CCc3[nH]cnc3[C@H]2c2cc3c(C4CC4)cccn3n2)o1 [Example 1840, (S)-(5-(tert-butyl)-1,3,4-oxadiazol-2-yl)(4-(4-cyclopropylpyrazolo[1,5-a]pyridin-2-yl)-1,4,6,7-tetrahydro-5H-imidazo[4,5-c]pyridin-5-yl)methanone]	< 500 nM
CC(C)(C)c1nnc(C(=O)N2CCc3[nH]cnc3[C@@H]2c2cc3c(C4CC4)cccn3n2)o1 [Example 1841, (R)-(5-(tert-butyl)-1,3,4-oxadiazol-2-yl)(4-(4-cyclopropylpyrazolo[1,5-a]pyridin-2-yl)-1,4,6,7-tetrahydro-5H-imidazo[4,5-c]pyridin-5-yl)methanone]	> 5000 nM
Nc1cnc(N2CCc3[nH]cnc3[C@H]2c2cc3c(C(F)F)cccn3n2)nc1 [Example 1852, (S)-2-(4-(4-(difluoromethyl)pyrazolo[1,5-a]pyridin-2-yl)-1,4,6,7-tetrahydro-5H-imidazo[4,5-c]pyridin-5-yl)pyrimidin-5-amine]	500 to 1000 nM
Nc1cnc(N2CCc3[nH]cnc3[C@@H]2c2cc3c(C(F)F)cccn3n2)nc1 [Example 1853, (R)-2-(4-(4-(difluoromethyl)pyrazolo[1,5-a]pyridin-2-yl)-1,4,6,7-tetrahydro-5H-imidazo[4,5-c]pyridin-5-yl)pyrimidin-5-amine]	1000 to 5000 nM
O=C(c1nnc(-c2ncccc2F)o1)N1CCc2[nH]cnc2[C@@H]1c1cc2c(C3CC3)cccn2n1 [Example 1854, (R)-(4-(4-cyclopropylpyrazolo[1,5-a]pyridin-2-yl)-1,4,6,7-tetrahydro-5H-imidazo[4,5-c]pyridin-5-yl)(5-(3-fluoropyridin-2-yl)-1,3,4-oxadiazol-2-yl)methanone]	> 5000 nM
O=C(c1nnc(-c2ncccc2F)o1)N1CCc2[nH]cnc2[C@H]1c1cc2c(C3CC3)cccn2n1 [Example 1855, (S)-(4-(4-cyclopropylpyrazolo[1,5-a]pyridin-2-yl)-1,4,6,7-tetrahydro-5H-imidazo[4,5-c]pyridin-5-yl)(5-(3-fluoropyridin-2-yl)-1,3,4-oxadiazol-2-yl)methanone]	< 500 nM
Cc1nnc(C(=O)N2CCc3[nH]cnc3[C@H]2c2cc3c(C(C)C)cccn3n2)o1 [Example 1858, (S)-(4-(4-isopropylpyrazolo[1,5-a]pyridin-2-yl)-1,4,6,7-tetrahydro-5H-imidazo[4,5-c]pyridin-5-yl)(5-methyl-1,3,4-oxadiazol-2-yl)methanone]	< 500 nM
Fc1ccc(-c2nnc(N3CCc4[nH]cnc4[C@H]3c3cc4ccccn4n3)o2)cc1 [Example 1861, (S)-2-(4-fluorophenyl)-5-(4-(pyrazolo[1,5-a]pyridin-2-yl)-1,4,6,7-tetrahydro-5H-imidazo[4,5-c]pyridin-5-yl)-1,3,4-oxadiazole]	< 500 nM

Second part, the compound after the results:

AC50	SMILES
< 500 nM	FC(F)(F)c1nnc(N2CCc3[nH]cnc3[C@H]2c2cc3c(C(F)(F)F)cccn3n2)o1 [Example 1821, (S)-2-(trifluoromethyl)-5-(4-(4-(trifluoromethyl)pyrazolo[1,5-a]pyridin-2-yl)-6,7-dihydro-1H-imidazo[4,5-c]pyridin-5(4H)-yl)-1,3,4-oxadiazole]
500 to 1000 nM	CC(C)(C)c1nnc(N2CCc3[nH]cnc3[C@H]2c2cc3c(C(F)F)cccn3n2)o1 [Example 1825, (S)-2-(tert-butyl)-5-(4-(4-(difluoromethyl)pyrazolo[1,5-a]pyridin-2-yl)-6,7-dihydro-1H-imidazo[4,5-c]pyridin-5(4H)-yl)-1,3,4-oxadiazole]
1000 to 5000 nM	FC(F)c1cccn2nc([C@H]3c4nc[nH]c4CCN3c3cncc(Cl)n3)cc12 [Example 1828, (R)-5-(6-chloropyrazin-2-yl)-4-(4-(difluoromethyl)pyrazolo[1,5-a]pyridin-2-yl)-4,5,6,7-tetrahydro-1H-imidazo[4,5-c]pyridine]
< 500 nM	FC(F)c1cccn2nc([C@@H]3c4nc[nH]c4CCN3c3cncc(Cl)n3)cc12 [Example 1829, (S)-5-(6-chloropyrazin-2-yl)-4-(4-(difluoromethyl)pyrazolo[1,5-a]pyridin-2-yl)-4,5,6,7-tetrahydro-1H-imidazo[4,5-c]pyridine]
> 5000 nM	Clc1cccn2nc([C@H]3c4nc[nH]c4CCN3c3nnc(C4CCC4)o3)cc12 [Example 1830, (R)-2-(4-(4-chloropyrazolo[1,5-a]pyridin-2-yl)-6,7-dihydro-1H-imidazo[4,5-c]pyridin-5(4H)-yl)-5-cyclobutyl-1,3,4-oxadiazole]
500 to 1000 nM	Clc1cccn2nc([C@@H]3c4nc[nH]c4CCN3c3nnc(C4CCC4)o3)cc12 [Example 1831, (S)-2-(4-(4-chloropyrazolo[1,5-a]pyridin-2-yl)-6,7-dihydro-1H-imidazo[4,5-c]pyridin-5(4H)-yl)-5-cyclobutyl-1,3,4-oxadiazole]
500 to 1000 nM	CC(C)(C)c1nnc(N2CCc3[nH]cnc3[C@H]2c2cc3c(Cl)cccn3n2)o1 [Example 1833, (S)-2-(tert-butyl)-5-(4-(4-chloropyrazolo[1,5-a]pyridin-2-yl)-6,7-dihydro-1H-imidazo[4,5-c]pyridin-5(4H)-yl)-1,3,4-oxadiazole]
500 to 1000 nM	Nc1cnc(N2CCc3[nH]cnc3[C@H]2c2cc3c(C(F)(F)F)cccn3n2)nc1 [Example 1835, (S)-2-(4-(4-(trifluoromethyl)pyrazolo[1,5-a]pyridin-2-yl)-1,4,6,7-tetrahydro-5H-imidazo[4,5-c]pyridin-5-yl)pyrimidin-5-amine]
> 5000 nM	Cc1cccn2nc([C@H]3c4nc[nH]c4CCN3c3nnc(-c4c(F)cccc4F)o3)cc12 [Example 1844, (R)-2-(2,6-difluorophenyl)-5-(4-(4-methylpyrazolo[1,5-a]pyridin-2-yl)-6,7-dihydro-1H-imidazo[4,5-c]pyridin-5(4H)-yl)-1,3,4-oxadiazole]
< 500 nM	Cc1cccn2nc([C@@H]3c4nc[nH]c4CCN3c3nnc(-c4c(F)cccc4F)o3)cc12 [Example 1845, (S)-2-(2,6-difluorophenyl)-5-(4-(4-methylpyrazolo[1,5-a]pyridin-2-yl)-6,7-dihydro-1H-imidazo[4,5-c]pyridin-5(4H)-yl)-1,3,4-oxadiazole]
< 500 nM	Fc1cccc(F)c1-c1nnc(N2CCc3[nH]cnc3[C@H]2c2cc3c(C(F)(F)F)cccn3n2)o1 [Example 1847, (S)-2-(2,6-difluorophenyl)-5-(4-(4-(trifluoromethyl)pyrazolo[1,5-a]pyridin-2-yl)-6,7-dihydro-1H-imidazo[4,5-c]pyridin-5(4H)-yl)-1,3,4-oxadiazole]
> 5000 nM	FC(F)(F)c1nnc(N2CCc3[nH]cnc3[C@@H]2c2cc3c(Cl)cccn3n2)o1 [Example 1848, (R)-2-(4-(4-chloropyrazolo[1,5-a]pyridin-2-yl)-6,7-dihydro-1H-imidazo[4,5-c]pyridin-5(4H)-yl)-5-(trifluoromethyl)-1,3,4-oxadiazole]
< 500 nM	FC(F)(F)c1nnc(N2CCc3[nH]cnc3[C@H]2c2cc3c(Cl)cccn3n2)o1 [Example 1849, (S)-2-(4-(4-chloropyrazolo[1,5-a]pyridin-2-yl)-6,7-dihydro-1H-imidazo[4,5-c]pyridin-5(4H)-yl)-5-(trifluoromethyl)-1,3,4-oxadiazole]
500 to 1000 nM	Cc1cccc2cc([C@@H]3c4nc[nH]c4CCN3c3nnc(C(F)(F)F)o3)nn12 [Example 1850, (S)-2-(4-(7-methylpyrazolo[1,5-a]pyridin-2-yl)-6,7-dihydro-1H-imidazo[4,5-c]pyridin-5(4H)-yl)-5-(trifluoromethyl)-1,3,4-oxadiazole]
1000 to 5000 nM	Cc1cccc2cc([C@H]3c4nc[nH]c4CCN3c3nnc(C(F)(F)F)o3)nn12 [Example 1851, (R)-2-(4-(7-methylpyrazolo[1,5-a]pyridin-2-yl)-6,7-dihydro-1H-imidazo[4,5-c]pyridin-5(4H)-yl)-5-(trifluoromethyl)-1,3,4-oxadiazole]
> 5000 nM	Fc1cccc(F)c1-c1nnc(N2CCc3[nH]cnc3[C@@H]2c2cc3c(C(F)F)cccn3n2)o1 [Example 1862, (R)-2-(4-(4-(difluoromethyl)pyrazolo[1,5-a]pyridin-2-yl)-1,4,6,7-tetrahydro-5H-imidazo[4,5-c]pyridin-5-yl)-5-(2,6-difluorophenyl)-1,3,4-oxadiazole]
